Assay results from US20130280764A1, “METHOD OF IMPROVING THE ACTIVITY OF CELLULASE ENZYME MIXTURES IN THE SACCHARIFICATION (LIGNO)CELLULOSIC MATERIAL” (DYADIC INTERNATIONAL (USA) LTD., priority 2012, published 2013).

Legend:
Type in all cases: biochemical, Myceliophthora thermophila C1
CBH4 = assay: Saccharification of microcrystalline cellulose by purified cellulase with gluconolactone; conditions: 10 g/L gluconolactone; MCC, 50° C., 72 hrs
Method: (§1) Purified Bgl1, Eg5, Eg6, CBH1, CBH2, and CBH4 from M. thermophila C1 were used to determine the level of inhibition by gluconolactone. For Bgl1, cellobiase activity was assayed by the following procedure: 0.4 ml of 2.5 mM cellobiose solution (in 0.1 M Na-acetate with pH 4.5, 5.0 or 6.0) was incubated during 5 min at 50° C. (with or without gluconolactone), then 0.1 ml of the enzyme (bgl1 from C1) solution was added (the dilution of the enzyme chosen at such a concentration in order to achieve 10% of cellobiose hydrolysis in 15 min, which is 0.072 g/L of glucose released). After 5, 10 and 15 min of incubation at […], 0.1 ml of the reaction mixture was sampled and glucose concentration was determined immediately by the glucose oxidase-peroxidase assay (Megazymes). Gluconolactone (Sigma-Aldrich) was added in the reaction mixture at concentrations between 0-10 g/L (0, 0.04, 0.08, 0.1, 0.2, 0.3, 0.6, 0.8, 1, 2, 4, 5, 8 and 10 g/L).
(§2) For C1 cellulases Eg2, Eg5, Eg6, CBH1, CBH2, CBH4, the effect of 10 g/L gluconolactone on the saccharification of microcrystalline cellulose (“MCC”) at 50° C. was determined after 72 hrs.

CBH2 = assay: as above; conditions: 10 g/L gluconolactone; MCC, 50° C., 72 hrs
Method: as §1, §2

CBH1 = assay: as above; conditions: 10 g/L gluconolactone; MCC, 50° C., 72 hrs
Method: as §1, §2

EG5 = assay: as above; conditions: 10 g/L gluconolactone; MCC, 50° C., 72 hrs
Method: as §1, §2

EG2 = assay: as above; conditions: 10 g/L gluconolactone; MCC, 50° C., 72 hrs
Method: as §1, §2

M. thermophila C1 BGl1 = assay: Cellobiase activity of Bgl1 with or without gluconolactone; conditions: gluconolactone above 0.1 g/L; pH 4.5, 5.0 and 6.0
Method: as §1, §2

Structure (SMILES): O=C1O[C@H](CO)[C@@H](O)[C@H](O)[C@H]1O [gluconolactone]
- Remaining activity (CBH4): 33%
- Remaining activity (CBH2): 13%
- Remaining activity (CBH1): 14%
- Remaining activity (EG5): 65%
- Remaining activity (EG2): 28%
- inhibition of cellobiase activity (M. thermophila C1 BGl1): completely inhibited
